According to article PMC11151858 (RSC Chemical Biology, 2024):

These compounds were tested on wild-type progesterone receptor (pSG5-Gal4-DBD-PR) and its mutants. Conditions: not given.
Format: cell-based

Row | Structure (SMILES) | activity in PR mutants as compared to wild-type PR
1 | C[C@@H]1C[C@H]2[C@@H]3CCC4=CC(=O)C=C[C@]4(C)[C@@]3(F)[C@@H](O)C[C@]2(C)[C@@]1(O)C(=O)CO [DEX, Dexamethasone] | lowered below DMSO control by most mutations
2 | CC(=O)[C@H]1CC[C@H]2[C@@H]3CCC4=CC(=O)CC[C@]4(C)[C@H]3CC[C@]12C [STR, Progesterone] | lowered in all mutants

Same assay, conditions: HeLa, Gal4-DBD-PR LBD mutants; ligand 10 μM

Row | Structure (SMILES) | activity in PR mutants as compared to wild-type PR, high ligand concentration
3 | C[C@]12CCC(=O)C=C1CC[C@@H]1[C@@H]2[C@@H](O)C[C@]2(C=O)[C@@H](C(=O)CO)CC[C@@H]12 [AS4, Aldosterone] | reduced activity
4 | C[C@]12CCC(=O)C[C@@H]1CC[C@@H]1[C@@H]2CC[C@]2(C)[C@@H](O)CC[C@@H]12 [DHT, Dihydrotestosterone] | reduced activity
5 | C[C@]12CCC(=O)C=C1CC[C@@H]1[C@@H]2[C@@H](O)C[C@@]2(C)[C@H]1CC[C@]2(O)C(=O)CO [HCY, Cortisol] | reduced activity
6 | C[C@]12C=CC(=O)C=C1CC[C@@H]1[C@@H]2C(=O)C[C@@]2(C)[C@H]1CC[C@]2(O)C(=O)CO [PDN, Prednisone] | additional reduction
